Experimental data published in US9371265B2, “Compositions and methods related to inhibitors of JAK kinase” (EP PHARMA, INC., priority 2012, dated 2016).

Experiments:
[1] = target: JNK2 (Homo sapiens, UniProt P45984); test: Kinase panel: JNK2; type: biochemical; details: 10 μM EP009
Experimental: (§1) Achieving JAK3 selectivity remains a significant challenge in the development of new small molecules for the treatment of cancer and immune-derived diseases. As such, the inventors employed cell-based screening assays of small-molecule libraries based upon the chemical scaffold of the established JAK3 inhibitor NC1153 (Stepkowski et al., J Immunol. (2005), 175(7):4236-4246) EP009 (FIG. 2A) was selected as a lead compound due to improved intrinsic stability (>95% purity in various solvents at 37° C. for 24 hours; FIG. 3) and high-degree of JAK3 selectivity. To test JAK3 versus JAK2 specificity of EP009, the IL-2/JAK3-dependent Kit225, and IL-3/JAK2-dependent BaF/3 cell lines were used. Kit225 and BaF/3 cells growing in the presence of IL-2 or IL-3, respectively, were treated with ascending concentrations of EP009 for 12 hours and cellular JAK3 and JAK2 tyrosine phosphorylation levels detected by Western blot analysis (FIGS. 2B and 2C). Following densitometric analysis, EP009 was determined to dose-dependently reduce IL-2-mediated JAK3 tyrosine phosphorylation with a cellular 50% inhibitory concentration (IC50) between 10 and 20 μM (FIG. 2B). […] To globally evaluate specificity, the inhibitory activity of EP009 was measured against a panel of protein kinases distributed throughout the kinome using the scanEDGE profiling service (KINOMEscan). […]

[2] = target: JNK1 (Homo sapiens, UniProt P45983); test: Kinase panel: JNK1; type: biochemical; details: 10 μM EP009
JNK1, sequence (P45983 whole entry): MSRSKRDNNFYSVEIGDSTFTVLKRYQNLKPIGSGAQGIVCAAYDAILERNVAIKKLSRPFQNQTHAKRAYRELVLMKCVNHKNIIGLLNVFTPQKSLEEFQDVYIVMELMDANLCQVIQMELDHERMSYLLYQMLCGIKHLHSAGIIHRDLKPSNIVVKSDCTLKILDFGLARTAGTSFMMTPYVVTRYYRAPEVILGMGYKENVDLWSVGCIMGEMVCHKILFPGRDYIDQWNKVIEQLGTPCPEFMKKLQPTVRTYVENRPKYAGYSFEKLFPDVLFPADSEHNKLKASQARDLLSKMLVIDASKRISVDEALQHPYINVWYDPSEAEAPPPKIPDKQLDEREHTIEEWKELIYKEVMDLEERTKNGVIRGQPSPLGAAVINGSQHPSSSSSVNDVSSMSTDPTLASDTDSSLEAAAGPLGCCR
Experimental: as §1

[3] = system: SU-DHL-1 tumors; test: SU-DHL-1 xenograft human lymphoma model; type: in vivo, SCID/NOD mice
Experimental: FIGS. 9A-9B Pharmacokinetics and efficacy of EP009 in vivo. (A) Sprague Dawley rats were administered EP009 by oral gavage (200 mg/kg) and pharmacokinetics measured by analysis of plasma concentrations at indicated time points. Values represent mean concentrations, while error bars represent the standard deviation (n=5). (B) Therapeutic study of EP009 in SU-DHL-1 model in SCID/NOD mice.
Severe combined immunodeficient/nonobese diabetic (SCID/NOD) mice were purchased from Charles River (Milan, Italy). The SU-DHL-1 model, 28 which was established by subcutaneous injection of 1×10^7 SU-DHL-1 cells in the left flank of SCID/NOD mice, served as the xenograft human lymphoma model. Tumor masses were measured with caliper in two perpendicular diameters in a blind fashion to determine the longest diameter. Progressively growing masses >1 mm in diameter were regarded as tumors. Mice were divided into three groups (n=8/group) and treatments initiated when tumors were established and measurable (day 16 after tumor challenge). Control mice received oral gavage of saline (placebo), while treated mice received EP009 orally (100 or 200 mg/kg) three times per week for six weeks. The study was terminated when tumors began to show signs of ulcerations and measurements became inaccurate (day 58). All animal were maintained in the animal facility of the Molecular Biotechnology Center, University of Turin and treated in accordance with the European guidelines.

[4] = target: PIK3CG (Homo sapiens, UniProt P48736); test: Kinase panel: PIK3CG; type: biochemical; details: 10 μM EP009
PIK3CG, sequence (P48736 whole entry): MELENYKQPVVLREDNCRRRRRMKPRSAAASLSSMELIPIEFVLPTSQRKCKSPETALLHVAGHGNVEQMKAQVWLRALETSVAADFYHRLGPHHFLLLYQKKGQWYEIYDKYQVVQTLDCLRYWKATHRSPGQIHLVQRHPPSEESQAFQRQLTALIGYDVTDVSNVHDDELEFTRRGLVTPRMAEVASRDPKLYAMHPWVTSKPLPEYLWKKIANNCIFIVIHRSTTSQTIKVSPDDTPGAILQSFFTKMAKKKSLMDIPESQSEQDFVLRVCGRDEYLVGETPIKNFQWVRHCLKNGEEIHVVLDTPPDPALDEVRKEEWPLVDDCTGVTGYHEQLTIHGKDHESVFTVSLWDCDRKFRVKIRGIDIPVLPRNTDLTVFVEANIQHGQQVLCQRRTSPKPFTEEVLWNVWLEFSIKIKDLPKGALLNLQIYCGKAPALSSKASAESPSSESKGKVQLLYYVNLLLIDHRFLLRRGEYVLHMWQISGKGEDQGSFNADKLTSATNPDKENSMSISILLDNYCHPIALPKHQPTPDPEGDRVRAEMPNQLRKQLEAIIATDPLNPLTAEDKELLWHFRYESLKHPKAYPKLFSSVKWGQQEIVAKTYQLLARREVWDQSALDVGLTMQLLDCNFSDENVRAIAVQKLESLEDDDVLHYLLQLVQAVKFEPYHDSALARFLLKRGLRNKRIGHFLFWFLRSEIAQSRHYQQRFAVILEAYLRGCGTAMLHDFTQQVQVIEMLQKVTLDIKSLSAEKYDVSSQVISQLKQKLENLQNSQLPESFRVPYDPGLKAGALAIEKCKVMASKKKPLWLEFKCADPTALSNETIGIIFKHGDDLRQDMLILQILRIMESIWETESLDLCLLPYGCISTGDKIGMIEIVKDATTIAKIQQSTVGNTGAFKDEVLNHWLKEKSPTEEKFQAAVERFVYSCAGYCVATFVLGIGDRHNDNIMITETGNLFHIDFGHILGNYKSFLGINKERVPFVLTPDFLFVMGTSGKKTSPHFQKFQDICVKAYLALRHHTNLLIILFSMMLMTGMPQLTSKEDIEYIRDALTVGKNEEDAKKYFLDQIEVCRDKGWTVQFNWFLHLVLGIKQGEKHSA
Experimental: as §1

[5] = target: ADCK3 (Homo sapiens, UniProt Q8NI60); test: Kinase panel: ADCK3; type: biochemical; details: 10 μM EP009
ADCK3, sequence (Q8NI60 163-647): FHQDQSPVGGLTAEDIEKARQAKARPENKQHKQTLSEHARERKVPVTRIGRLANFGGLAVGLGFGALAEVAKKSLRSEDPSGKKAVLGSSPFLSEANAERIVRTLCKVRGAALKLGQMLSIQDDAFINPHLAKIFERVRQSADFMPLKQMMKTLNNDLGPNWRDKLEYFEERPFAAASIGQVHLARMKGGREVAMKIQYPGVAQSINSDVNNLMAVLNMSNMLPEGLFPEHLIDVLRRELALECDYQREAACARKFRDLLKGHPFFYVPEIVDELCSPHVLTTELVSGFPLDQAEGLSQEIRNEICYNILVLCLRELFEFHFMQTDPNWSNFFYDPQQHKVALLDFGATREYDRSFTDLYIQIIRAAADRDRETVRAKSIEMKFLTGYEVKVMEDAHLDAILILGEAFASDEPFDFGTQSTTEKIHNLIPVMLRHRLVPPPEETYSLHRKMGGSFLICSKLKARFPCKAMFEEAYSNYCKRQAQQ
Experimental: as §1

[6] = system: HEPG2; test: HEPG2 cell viability (MTS); type: cell-based, human; details: 72 hours, concentrations giving complete loss of JAK3-dependent cell viability (0-10 μM)
Experimental: FIGS. 2A-2F. Selective inhibition of JAK3 by EP009 results in loss of JAK3-dependent tumor cell line viability with no detectable off-target effects in key cell types. (A) Chemical structure of EP009 (M.W. 224.34). (B) Kit225 or (C) BaF/3 cells cultured in the presence of IL-2 or IL-3, respectively, were treated with vehicle (PBS; lane a) or increasing amounts of EP009 (0-50 μM; lanes b-h) for 12 hours. Cells were then lysed, clarified, and immunoprecipitated (IP) with anti-JAK3 (α-JAK3) or anti-JAK2 (α-JAK2), and subjected to Western blot (WB) analysis with anti-phosphotyrosine (α-pY). Blots were stripped and reprobed with corresponding antibody to verify equivalent protein loading. […] (E) Kit225 or BaF/3 cells were cultured with increasing amounts of EP009 (0-10 μM) for 72 hours and cell viability measured with the MTS tetrazolium salt assay. Values represent mean absorbance (OD490-OD650 nm) normalized to vehicle (PBS) treated control cells, while error bars represent the standard deviation (n=3). (F) HEK293, HEPG2, or naïve primary human PBMCs were cultured with increasing amounts of EP009 (0-10 μM) for 72 hours and cell viability measured with the MTS tetrazolium salt assay. Values represent mean absorbance (OD490-OD650 nm) normalized to vehicle (PBS) treated control cells, while error bars represent the standard deviation (n=3). […]

[7] = target: INSR (Homo sapiens, UniProt P06213); test: Kinase panel: INSR; type: biochemical; details: 10 μM EP009
INSR, sequence (P06213 28-1382): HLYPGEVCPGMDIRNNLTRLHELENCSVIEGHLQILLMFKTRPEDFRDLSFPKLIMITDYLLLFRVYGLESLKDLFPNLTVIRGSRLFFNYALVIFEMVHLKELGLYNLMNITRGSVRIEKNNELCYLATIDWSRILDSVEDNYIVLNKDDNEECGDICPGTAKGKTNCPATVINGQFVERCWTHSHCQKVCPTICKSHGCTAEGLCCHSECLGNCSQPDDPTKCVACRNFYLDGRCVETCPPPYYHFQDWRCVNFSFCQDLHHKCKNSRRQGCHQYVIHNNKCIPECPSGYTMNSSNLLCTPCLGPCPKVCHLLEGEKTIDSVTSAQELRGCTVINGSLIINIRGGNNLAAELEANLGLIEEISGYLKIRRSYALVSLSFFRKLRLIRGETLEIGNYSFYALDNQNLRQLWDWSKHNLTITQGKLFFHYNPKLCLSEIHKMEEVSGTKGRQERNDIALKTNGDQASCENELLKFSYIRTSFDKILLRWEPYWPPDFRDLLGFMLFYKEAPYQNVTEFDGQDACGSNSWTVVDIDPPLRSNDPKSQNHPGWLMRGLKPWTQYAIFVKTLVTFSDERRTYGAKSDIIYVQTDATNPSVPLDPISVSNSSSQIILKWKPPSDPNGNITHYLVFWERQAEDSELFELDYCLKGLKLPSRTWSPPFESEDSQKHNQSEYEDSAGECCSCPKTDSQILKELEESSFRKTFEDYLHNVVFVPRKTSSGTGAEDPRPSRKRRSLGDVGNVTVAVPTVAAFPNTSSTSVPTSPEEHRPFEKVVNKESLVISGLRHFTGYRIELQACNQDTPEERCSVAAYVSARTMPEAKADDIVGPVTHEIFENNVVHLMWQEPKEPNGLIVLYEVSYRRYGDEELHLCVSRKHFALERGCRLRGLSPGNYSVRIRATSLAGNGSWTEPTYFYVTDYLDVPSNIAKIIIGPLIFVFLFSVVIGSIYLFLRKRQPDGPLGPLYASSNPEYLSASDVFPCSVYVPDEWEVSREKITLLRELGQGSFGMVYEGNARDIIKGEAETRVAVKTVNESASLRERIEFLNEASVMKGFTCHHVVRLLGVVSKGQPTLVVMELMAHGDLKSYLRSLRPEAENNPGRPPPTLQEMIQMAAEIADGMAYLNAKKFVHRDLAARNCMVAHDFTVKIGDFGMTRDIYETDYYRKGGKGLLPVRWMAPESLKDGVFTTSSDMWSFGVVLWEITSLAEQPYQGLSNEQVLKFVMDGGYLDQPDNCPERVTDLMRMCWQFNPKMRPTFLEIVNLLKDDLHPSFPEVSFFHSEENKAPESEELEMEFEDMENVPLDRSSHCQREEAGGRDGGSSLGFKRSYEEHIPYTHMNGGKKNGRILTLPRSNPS
Experimental: as §1

JNK2, sequence (P45984 whole entry): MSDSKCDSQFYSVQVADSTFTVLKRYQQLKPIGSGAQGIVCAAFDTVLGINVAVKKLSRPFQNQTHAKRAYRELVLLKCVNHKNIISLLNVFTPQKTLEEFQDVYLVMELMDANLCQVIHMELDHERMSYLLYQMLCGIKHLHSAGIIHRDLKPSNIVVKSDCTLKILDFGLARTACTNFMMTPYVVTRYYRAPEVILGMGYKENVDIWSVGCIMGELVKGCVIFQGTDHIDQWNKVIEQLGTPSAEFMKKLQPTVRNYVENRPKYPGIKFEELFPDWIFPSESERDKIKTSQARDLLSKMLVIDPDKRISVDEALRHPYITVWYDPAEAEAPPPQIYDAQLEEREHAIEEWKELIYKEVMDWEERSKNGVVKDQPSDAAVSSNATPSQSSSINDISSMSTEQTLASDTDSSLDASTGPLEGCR

Compound: C=C1CCCCCCCCCC(CO)C1=O (stereo not drawn) [EP009, 2-(Hydroxymethyl)-12-methylenecyclododecanone]
- Kinase Activity (% of Control) [1]: 100 % of Control
- Kinase Activity (% of Control) [2]: 99 % of Control
- tumor growth inhibition ([3]; oral 100 mg/kg three times per week, p<0.05): 37.5%
- tumor growth inhibition ([3]; oral 200 mg/kg three times per week, p<0.01): 51%
- body weight changes ([3]; oral 100 and 200 mg/kg): No significant body weight changes
- Kinase Activity (% of Control) [4]: 75 % of Control
- Kinase Activity (% of Control) [5]: 98 % of Control
- effect on HEPG2 cell viability [6]: no detectable loss of cell viability
- Kinase Activity (% of Control) [7]: 100 % of Control
